Reference: the kinase profiling compilation of Christmann-Franck et al. (2016)

Legend:
Assay in all cases: KINOMEscan competition binding
Settings in all cases: compound 10.0 µM
GSG2 (human) = GSG2 (human) (UniProt Q8TF76)
NEK10 (human) = NEK10 (human) (UniProt Q6ZWH5)
BUB1 (human) = BUB1 (human) (UniProt O43683)
SGK1 (human) = SGK1 (human) (UniProt O00141)
RPS6KA3 KD2 (human) = RPS6KA3 KD2 (human) (UniProt P51812)
[1] = tested on: ABL1 (human), P00519 [F317L]
[2] = tested on: ABL1 (human), P00519 [F317I]
Chain of ABL1 (human), P00519 [F317I] (P00519 whole entry F317I, looked up): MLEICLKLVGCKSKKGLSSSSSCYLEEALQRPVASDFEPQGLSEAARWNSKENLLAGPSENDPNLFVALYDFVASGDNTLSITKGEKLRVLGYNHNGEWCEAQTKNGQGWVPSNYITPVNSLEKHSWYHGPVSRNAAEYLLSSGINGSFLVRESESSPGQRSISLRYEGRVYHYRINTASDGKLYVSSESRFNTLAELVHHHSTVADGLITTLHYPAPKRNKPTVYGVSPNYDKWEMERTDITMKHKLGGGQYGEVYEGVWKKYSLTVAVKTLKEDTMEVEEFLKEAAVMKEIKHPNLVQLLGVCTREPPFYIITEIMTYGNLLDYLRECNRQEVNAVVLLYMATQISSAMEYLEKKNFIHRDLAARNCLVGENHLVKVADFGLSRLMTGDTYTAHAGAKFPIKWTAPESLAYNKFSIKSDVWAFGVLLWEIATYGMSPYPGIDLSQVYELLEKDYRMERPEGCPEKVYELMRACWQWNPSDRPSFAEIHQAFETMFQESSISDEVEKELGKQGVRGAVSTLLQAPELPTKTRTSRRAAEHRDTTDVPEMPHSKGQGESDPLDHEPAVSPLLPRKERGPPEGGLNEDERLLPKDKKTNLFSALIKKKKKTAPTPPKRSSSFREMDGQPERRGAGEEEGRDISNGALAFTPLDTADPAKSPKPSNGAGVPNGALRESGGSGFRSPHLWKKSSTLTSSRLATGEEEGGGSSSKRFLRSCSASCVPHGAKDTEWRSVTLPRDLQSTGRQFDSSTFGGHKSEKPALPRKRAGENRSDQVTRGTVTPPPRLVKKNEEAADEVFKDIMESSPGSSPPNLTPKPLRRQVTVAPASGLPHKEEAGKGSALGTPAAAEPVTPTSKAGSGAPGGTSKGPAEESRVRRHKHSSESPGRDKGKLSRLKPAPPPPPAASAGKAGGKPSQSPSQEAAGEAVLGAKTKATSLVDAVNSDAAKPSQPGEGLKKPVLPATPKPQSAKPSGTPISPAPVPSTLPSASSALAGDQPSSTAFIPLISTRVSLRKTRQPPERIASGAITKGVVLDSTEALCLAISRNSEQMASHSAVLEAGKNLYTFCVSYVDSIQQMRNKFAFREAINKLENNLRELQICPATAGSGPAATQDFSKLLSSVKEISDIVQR

Chain of RPS6KA3 KD2 (human) (P51812 whole entry, looked up): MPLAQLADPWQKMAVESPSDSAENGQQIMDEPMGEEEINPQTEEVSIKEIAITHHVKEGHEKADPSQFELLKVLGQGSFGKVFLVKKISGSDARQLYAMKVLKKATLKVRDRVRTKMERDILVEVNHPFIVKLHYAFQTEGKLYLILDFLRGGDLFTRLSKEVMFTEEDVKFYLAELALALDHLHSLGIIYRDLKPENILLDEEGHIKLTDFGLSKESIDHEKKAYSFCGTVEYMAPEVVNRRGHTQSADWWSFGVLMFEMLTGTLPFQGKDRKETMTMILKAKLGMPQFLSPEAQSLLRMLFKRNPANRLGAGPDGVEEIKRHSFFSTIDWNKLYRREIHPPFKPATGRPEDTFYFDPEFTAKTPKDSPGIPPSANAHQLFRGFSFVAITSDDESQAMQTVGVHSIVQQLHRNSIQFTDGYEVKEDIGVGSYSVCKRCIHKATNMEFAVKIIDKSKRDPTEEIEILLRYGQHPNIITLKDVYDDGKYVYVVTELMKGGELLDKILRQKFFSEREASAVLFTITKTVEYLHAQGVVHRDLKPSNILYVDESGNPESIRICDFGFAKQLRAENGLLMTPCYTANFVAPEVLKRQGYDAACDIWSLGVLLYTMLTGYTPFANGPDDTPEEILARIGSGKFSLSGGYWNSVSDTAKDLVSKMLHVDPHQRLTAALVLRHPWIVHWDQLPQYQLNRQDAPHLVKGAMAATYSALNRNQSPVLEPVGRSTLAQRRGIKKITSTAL
Chain of BUB1 (human) (O43683 whole entry, looked up): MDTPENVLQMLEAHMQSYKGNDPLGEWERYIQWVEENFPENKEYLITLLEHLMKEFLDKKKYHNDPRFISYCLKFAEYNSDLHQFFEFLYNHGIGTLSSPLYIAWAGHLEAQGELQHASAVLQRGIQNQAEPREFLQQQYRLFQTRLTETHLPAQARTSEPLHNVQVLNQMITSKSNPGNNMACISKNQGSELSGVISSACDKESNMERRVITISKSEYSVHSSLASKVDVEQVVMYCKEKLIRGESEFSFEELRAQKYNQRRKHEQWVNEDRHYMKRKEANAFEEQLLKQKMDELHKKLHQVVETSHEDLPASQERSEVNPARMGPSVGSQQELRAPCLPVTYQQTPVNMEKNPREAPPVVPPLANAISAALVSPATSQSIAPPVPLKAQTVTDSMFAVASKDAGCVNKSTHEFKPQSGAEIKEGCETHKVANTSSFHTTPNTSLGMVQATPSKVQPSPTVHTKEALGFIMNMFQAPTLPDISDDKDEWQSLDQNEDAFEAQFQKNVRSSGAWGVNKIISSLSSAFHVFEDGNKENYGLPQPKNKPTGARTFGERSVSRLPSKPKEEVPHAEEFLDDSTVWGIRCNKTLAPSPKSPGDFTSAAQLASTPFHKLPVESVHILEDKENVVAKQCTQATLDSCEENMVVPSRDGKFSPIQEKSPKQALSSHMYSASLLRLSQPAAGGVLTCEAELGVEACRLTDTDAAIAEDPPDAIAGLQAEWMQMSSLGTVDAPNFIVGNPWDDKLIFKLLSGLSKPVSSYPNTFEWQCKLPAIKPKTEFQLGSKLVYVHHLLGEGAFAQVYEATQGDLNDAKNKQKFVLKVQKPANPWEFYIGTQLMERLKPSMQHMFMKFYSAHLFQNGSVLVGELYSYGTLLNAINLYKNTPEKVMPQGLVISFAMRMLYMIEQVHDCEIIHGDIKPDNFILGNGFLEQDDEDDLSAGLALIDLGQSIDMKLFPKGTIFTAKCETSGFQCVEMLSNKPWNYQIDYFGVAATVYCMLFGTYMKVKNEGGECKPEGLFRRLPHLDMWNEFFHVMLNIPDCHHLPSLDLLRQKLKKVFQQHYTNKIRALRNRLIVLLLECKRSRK
Chain of ABL1 (human), P00519 [F317L] (P00519 whole entry F317L, looked up): as the sequence (P00519 whole entry F317I, looked up) above, with I317L counted along it
Chain of GSG2 (human) (Q8TF76 whole entry, looked up): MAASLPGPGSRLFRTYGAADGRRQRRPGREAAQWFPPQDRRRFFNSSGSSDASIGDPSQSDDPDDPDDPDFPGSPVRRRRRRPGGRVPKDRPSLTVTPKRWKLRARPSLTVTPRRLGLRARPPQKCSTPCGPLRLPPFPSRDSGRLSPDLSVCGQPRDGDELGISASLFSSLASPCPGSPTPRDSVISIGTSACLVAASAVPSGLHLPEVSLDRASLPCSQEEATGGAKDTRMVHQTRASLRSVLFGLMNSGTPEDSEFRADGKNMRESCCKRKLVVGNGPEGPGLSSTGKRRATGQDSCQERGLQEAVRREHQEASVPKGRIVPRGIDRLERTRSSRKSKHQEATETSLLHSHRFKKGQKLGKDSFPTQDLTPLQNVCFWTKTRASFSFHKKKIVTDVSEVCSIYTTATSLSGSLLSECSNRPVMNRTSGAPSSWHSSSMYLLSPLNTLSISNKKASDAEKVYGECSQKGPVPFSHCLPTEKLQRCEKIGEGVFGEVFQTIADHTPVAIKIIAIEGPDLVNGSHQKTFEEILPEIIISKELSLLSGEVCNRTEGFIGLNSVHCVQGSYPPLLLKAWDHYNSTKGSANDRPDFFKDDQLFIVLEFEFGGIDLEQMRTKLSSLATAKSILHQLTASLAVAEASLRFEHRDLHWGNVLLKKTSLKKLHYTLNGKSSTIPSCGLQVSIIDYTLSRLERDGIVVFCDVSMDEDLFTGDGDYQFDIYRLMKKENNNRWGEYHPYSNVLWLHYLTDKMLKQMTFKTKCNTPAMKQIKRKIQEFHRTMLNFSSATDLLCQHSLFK
Chain of SGK1 (human) (O00141 whole entry, looked up): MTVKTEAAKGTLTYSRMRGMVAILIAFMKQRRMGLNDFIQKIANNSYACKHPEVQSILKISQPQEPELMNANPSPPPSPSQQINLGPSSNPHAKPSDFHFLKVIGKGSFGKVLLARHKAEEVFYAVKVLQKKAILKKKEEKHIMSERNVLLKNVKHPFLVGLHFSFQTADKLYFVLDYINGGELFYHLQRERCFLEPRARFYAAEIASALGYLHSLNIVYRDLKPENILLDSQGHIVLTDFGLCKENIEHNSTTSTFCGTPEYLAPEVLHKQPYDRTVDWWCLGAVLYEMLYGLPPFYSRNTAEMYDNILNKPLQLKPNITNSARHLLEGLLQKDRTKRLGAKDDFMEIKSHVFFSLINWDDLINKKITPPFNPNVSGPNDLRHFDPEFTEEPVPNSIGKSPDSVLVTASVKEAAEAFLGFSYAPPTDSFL

SMILES	kinase still bound, per cent of control (GSG2 (human)) [%]	kinase still bound, per cent of control (NEK10 (human)) [%]	kinase still bound, per cent of control (BUB1 (human)) [%]	kinase still bound, per cent of control (SGK1 (human)) [%]	kinase still bound, per cent of control (RPS6KA3 KD2 (human)) [%]	kinase still bound, per cent of control [1] [%]	kinase still bound, per cent of control [2] [%]
COc1cc2ncnc(Nc3cccc(Cl)c3)c2cc1OC	100	91	0.3	68	71		
CNC(=O)Nc1ccc(-c2nc(N3CC4CCC(C3)O4)c3cnn(C4CCC5(CC4)OCCO5)c3n2)cc1	100		52	100	100		
Cc1cn(-c2cc(C(=O)Nc3ccc(C)c(NC(=O)c4ccno4)c3)cc(C(F)(F)F)c2)cn1						1.4	0.95
COc1cc(C)c(Sc2cnc(NC(=O)c3ccc(CNC(C)C(C)C)cc3)s2)cc1C(=O)N1CCN(C(C)=O)CC1 (configuration not stated)						100	100
O=c1[nH]c2ccccc2n1C1CCN(Cc2ccc(-c3nc4cc5[nH]cnc5cc4nc3-c3ccccc3)cc2)CC1	100	78	64	71	100		
COc1cc(N2CCC(C(N)=O)CC2)ccc1Nc1nc(N)c(Cl)c(Nc2ccccc2S(=O)(=O)C(C)C)n1						12	4.8
CCOc1cc(N2CCC(O)CC2)ccc1Nc1ncc2c(n1)N(C)c1ccccc1C(=O)N2C						100	30
